Laboratory results as given in patent publication US20260109721A1, “IONIZABLE CATIONIC LIPIDS INCORPORATING SILICON: SYNTHESIS AND LNP FORMULATION” (priority 2023, published 2026).
Read-outs that look alike come from different tables or passages of the source.

Legend:
HeLa cells = assay: Cell viability assessment with resazurin assay (Method A); format: cell-based; details: human
How it was run: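 Viability is given as percent of control metabolic activity: background-corrected resorufin fluorescence (ex 540, em 610 nm), with OptiMEM-only wells set to 100%. Resazurin at 0.025 mg/ml in DMEM/F12 with 10% FCS was applied to LNP-transfected HeLa cells for 50 min at 37 °C.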

HepG2 cell line = assay: In vitro toxicity study on HepG2 cell line (resazurin, viability and IC50); format: cell-based, human; details: for Viability (%) at different lipid concentrations, mean: HepG2 cells, 48 h post-treatment, relative to ethanol vehicle controls; for IC50: Homo sapiens, read-out: IC50 value, μM (on HepG2 cell)
How it was run: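 Resazurin read-out (ex 530/em 580 nm, 5 h at 37 °C) measured lipid toxicity 48 h after dosing HepG2 cells (1000/well) at 6.25–800 μM. Viability was normalised to ethanol vehicle, and IC50 was derived from concentration-response curves.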

[1] = Encapsulation efficiency of loaded LNPs, RiboGreen RNA assay (Method A); format: physicochemical; details: encapsulation efficiency of mRNA-loaded LNP, Method A, RiboGreen
How it was run: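 Encapsulation determined by RiboGreen fluorescence (excitation 480, emission 525) comparing Triton X-100–lysed and intact LNP wells, duplicates, after 10 min at 37° C and cooling to room temperature. Sample stocks ~4-7 μg/mL RNA in TE buffer; concentration from RNA standard curve.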

[2] = lipid toxicity, HepG2, 48 h post-treatment, resazurin, 6.25-800 μM

SMILES	Cell Viability % (Average metabolic rate over all doses, Resazurin) (HeLa cells)	Viability (%) at different lipid concentrations, mean (HepG2 cell line; 6.25 μM lipid, resazurin)	Viability (%) at different lipid concentrations, mean (HepG2 cell line; 12.5 μM lipid, resazurin)	Viability (%) at different lipid concentrations, mean (HepG2 cell line; 25 μM lipid, resazurin)	Viability (%) at different lipid concentrations, mean (HepG2 cell line; 50 μM lipid, resazurin)	Viability (%) at different lipid concentrations, mean (HepG2 cell line; 100 μM lipid, resazurin)	Viability (%) at different lipid concentrations, mean (HepG2 cell line; 200 μM lipid, resazurin)	Viability (%) at different lipid concentrations, mean (HepG2 cell line; 400 μM lipid, resazurin)	Viability (%) at different lipid concentrations, mean (HepG2 cell line; 800 μM lipid, resazurin)	IC50 (HepG2 cell line; [2])	EE (%) [1]	IC50 (HepG2 cell line; HepG2, 48 h)
CCCCC/C=C\C/C=C\CCCCCCCCOC(CCCCCCC/C=C\C/C=C\CCCCC)O[Si](C)(C)OCCCCCCN(C)CCO (centres unmarked) [Example 56, (23Z,26Z)-13-((8Z,11Z)-heptadeca-8,11-dien-1-yl)-3,11,11-trimethyl-10,12,14-trioxa-3-aza-11-siladotriaconta-23,26-dien-1-ol]	93%	96.7%	94.6%	96.5%	94.8%	99.7%	100.1%	89.5%	36.9%	714 µM	85%	
CCCCC/C=C\C/C=C\CCCCCCCCOC(CCCCCCC/C=C\C/C=C\CCCCC)O[Si](C)(C)OCCCCCCN1CCCCC1 (centres unmarked) [Example 57, 1-((20Z,23Z)-10-((8Z,11Z)-heptadeca-8,11-dien-1-yl)-8,8-dimethyl-7,9,11-trioxa-8-silanonacosa-20,23-dien-1-yl)piperidine]	99%	97.2%	93.7%	93.2%	94.3%	90.5%	86.9%	47.6%	4.6%		87%	401 µM
CCCCC/C=C\C/C=C\CCCCCCCCOC(CCCCCCC/C=C\C/C=C\CCCCC)O[Si](C)(C)OCCCCCCN1CCN(CCO)CC1 (centres unmarked) [Example 58, 2-(4-((20Z,23Z)-10-((8Z,11Z)-heptadeca-8,11-dien-1-yl)-8,8-dimethyl-7,9,11-trioxa-8-silanonacosa-20,23-dien-1-yl)piperazin-1-yl)ethan-1-ol]	97%	104.2%	97.0%	102.1%	101.2%	104.1%	101.6%	40.3%	3.8%	375 µM	86%	
CCCCC/C=C\C/C=C\CCCCCCCCOC(CCCCCCC/C=C\C/C=C\CCCCC)O[Si](C)(C)OCCCCCCN(C)CC(O)CO (centres unmarked) [Example 59, (24Z,27Z)-14-((8Z,11Z)-heptadeca-8,11-dien-1-yl)-4,12,12-trimethyl-11,13,15-trioxa-4-aza-12-silatritriaconta-24,27-diene-1,2-diol]	90%	97.3%	100.1%	112.6%	112.9%	76.9%	29.0%	18.1%	8.3%	149 µM	88%	
